What was measured:
[1] = test system: T1, Ab1 fibrils; experiment: Fibril incubation with plasma, quantitative MS/MS of bound proteins; format: binding, human; conditions: 50:1 w/w plasma protein:fibril
T1 construct: Synthetic amyloid β peptide 1–40 was purchased from Caslo Aps (Lyngby, Denmark); purchased Caslo Aps (Lyngby, Denmark); host or cells: synthetic peptide
Protocol: (§1) Plasma and CSF solutions were centrifuged (40,000 g, 20 min) to remove any aggregates. The protein concentration was determined using 280 nm absorbance assuming 1 Abs = 1 mg/mL. Samples with fibril material (20 μg), plasma (500 μg) or CSF (40 μg) proteins were prepared in 200 μL PBS buffer with 5 mM EDTA. Control samples (without fibril material) were prepared similarly. All samples were incubated at room temperature for one hour under gentle agitation. Fibrils and fibril-bound proteins were pelleted by centrifugation at 17,000 g for 30 minutes. The supernatant (175 μL) was removed and the aggregate was re-suspended in 175 μL PBS and pelleted again before further preparation for gel analysis and spin-filter assisted digest for quantitative MS/MS.
(§2) The fibril-protein pellets were transferred to spin-filters (0.22 μm), washed twice in PBS (100 μL) and once in 1 M NaCl (100 μL). The fibrils and fibril-bound proteins were dissolved by one-hour incubation in 100 μL 6 M guanidinium chloride followed by elution from the spin-filter. The eluted proteins were loaded onto a 3 kDa MWCO filter unit for filter-assisted unfolding, reduction, alkylation, and trypsin digestion. In brief, samples were washed twice in 8 M urea, once in 8 M urea with 50 mM DTT, once in 8 M urea with 50 mM iodoaceteamide, and twice in 8 M Urea. The filter units were dried by centrifugation (14,000 g in 30 minutes) after every addition. Trypsin digestion was carried out with 0.25 μg sequencing grade trypsin from Sigma Aldrich in 50 mM ammonium bicarbonate overnight at 37 °C. The tryptic peptides were collected by centrifugation, acidified with TFA (0.1%) and micro-purified using POROS R2 column material (Applied Biosystems) packed in P200 pipette tips (Sarstedt).
(§3) LC-MS/MS analyses were performed on an EASY-nLC II system (Thermo Fisher Scientific) connected to a TripleTOF 5600+ mass spectrometer (Sciex) equipped with a NanoSpray III source (Sciex) and operated under Analyst TF 1.6.0 control.
(§4) The micro-purified tryptic peptides were dissolved in 0.1% formic acid, injected and trapped on an in-house packed trap column (2 cm × 100 μm I.D) with RP ReproSil-Pur C18-AQ 3 μm resin (Dr. Maisch GmbH). Peptides were eluted from the trap column and separated on a 15 cm analytical column (75 μm i.d.) packed in-house in a pulled emitter with RP ReproSil-Pur C18-AQ 3 μm resin (Dr. Maisch GmbH). Elution from the analytical column was performed with a linear gradient from 5% to 35% phase B (90% acetonitrile with 0.1% formic acid) over 20 min for protein identification and 50 min for quantitative analysis, respectively.
(§5) All samples were analysed three times, yielding nine MS/MS experiments for each fibril for both plasma and CSF. For the area-based extracted ion chromatogram (XIC) quantification, the acquisition method was set up as an information-dependent acquisition (IDA) experiment collecting up to 25 MS/MS spectra in each 1.6 sec cycle using an exclusion window of 6 sec.
(§6) XIC quantification was based on the average ion intensity of the three most abundant peptides for each protein. Only proteins quantified in at least four out of nine MS/MS experiments per fibril were included in the quantification. The total ion scores were visualized after grouping the proteins according to function (Figure S11).
(§7) For each MS/MS experiment, the ion intensities of the individual proteins were normalized to the total ion intensity of that MS/MS experiment to achieve a relative protein composition. The contribution of each protein was averaged over all nine MS/MS experiments (Tables 1 and 2).

[2] = test system: T2, Ab2 fibrils; experiment: as above; format: binding, human; conditions: 50:1 w/w plasma protein:fibril
T2 construct: Two structurally distinct fibrils of the Aβ(1–40) peptide associated with AD
Protocol: as §1, with “Samples with fibril material (20 μg), plasma (500 μg) or CSF (40 μg) proteins were prepared in 200 μL PBS buffer with 5 mM EDTA.” left out
as §2, §3, §4, §5, §6, §7

[3] = target: T3, glucagon fibrils (Homo sapiens, UniProt P01275); experiment: as above; format: binding; conditions: 50:1 w/w plasma protein:fibril
T3 construct: fibrils of the peptide hormone glucagon
Protocol: as §1, with “Samples with fibril material (20 μg), plasma (500 μg) or CSF (40 μg) proteins were prepared in 200 μL PBS buffer with 5 mM EDTA.” left out
as §2, §3, §4, §5, §6, §7

[4] = target: T4, C-36 fibrils (Homo sapiens, UniProt P01009); experiment: as above; format: binding; conditions: 50:1 w/w plasma protein:fibril
T4 construct: the 36 residue C-terminal fragment of α1-antitrypsin (C-36)
Protocol: as §1, with “Samples with fibril material (20 μg), plasma (500 μg) or CSF (40 μg) proteins were prepared in 200 μL PBS buffer with 5 mM EDTA.” left out
as §2, §3, §4, §5, §6, §7

[5] = target: T5, αSN fibrils (Homo sapiens, UniProt P37840); experiment: as above; format: binding; parameters: key to Identification status of plasma protein bound: αSN: *: Identified, but not quantified; —: Not identified in any of the samples; conditions: for Relative composition of plasma proteins bound: αSN: 50:1 w/w plasma protein:fibril; for Identification status of plasma protein bound: αSN: symbol cells
Protocol: as §1, with “Samples with fibril material (20 μg), plasma (500 μg) or CSF (40 μg) proteins were prepared in 200 μL PBS buffer with 5 mM EDTA.” left out
as §2, §3, §4, §5, §6, §7

[6] = test system: T6, FAS4-AD aggregates; experiment: as above; format: binding, human; parameters: key to Identification status of plasma protein bound: FAS4-AD: *: Identified, but not quantified; —: Not identified in any of the samples; conditions: for Relative composition of plasma proteins bound: FAS4-AD: 50:1 w/w plasma protein:fibril
T6 construct: aggregates of a mutated version of the FAS1-4 domain of TGFBIp
Protocol: as §1, with “Samples with fibril material (20 μg), plasma (500 μg) or CSF (40 μg) proteins were prepared in 200 μL PBS buffer with 5 mM EDTA.” left out
as §2, §3, §4, §5, §6, §7

[7] = test system: T1, Ab1 fibrils; experiment: Fibril incubation with CSF, quantitative MS/MS of bound proteins; format: binding, human; conditions: 4:1 w/w CSF protein:fibril
Protocol: as §1, with “Samples with fibril material (20 μg), plasma (500 μg) or CSF (40 μg) proteins were prepared in 200 μL PBS buffer with 5 mM EDTA.” left out
as §2, §3, §4, §5, §6, §7

[8] = test system: T2, Ab2 fibrils; experiment: as above; format: binding, human; parameters: key to Identification status of CSF protein bound: Ab2: *: Identified, but not quantified; —: Not identified in any of the samples; conditions: for Identification status of CSF protein bound: Ab2: symbol cells; for Relative composition of CSF proteins bound: Ab2: 4:1 w/w CSF protein:fibril
Protocol: as §1, with “Samples with fibril material (20 μg), plasma (500 μg) or CSF (40 μg) proteins were prepared in 200 μL PBS buffer with 5 mM EDTA.” left out
as §2, §3, §4, §5, §6, §7

[9] = target: T3, glucagon fibrils; experiment: as above; format: binding; conditions: 4:1 w/w CSF protein:fibril
Protocol: as §1, with “Samples with fibril material (20 μg), plasma (500 μg) or CSF (40 μg) proteins were prepared in 200 μL PBS buffer with 5 mM EDTA.” left out
as §2, §3, §4, §5, §6, §7

[10] = target: T4, C-36 fibrils; experiment: as above; format: binding; conditions: 4:1 w/w CSF protein:fibril
Protocol: as §1, with “Samples with fibril material (20 μg), plasma (500 μg) or CSF (40 μg) proteins were prepared in 200 μL PBS buffer with 5 mM EDTA.” left out
as §2, §3, §4, §5, §6, §7

[11] = target: T5, αSN fibrils; experiment: as above; format: binding; parameters: key to Identification status of CSF protein bound: αSN: *: Identified, but not quantified; —: Not identified in any of the samples; conditions: for Identification status of CSF protein bound: αSN: symbol cells; for Relative composition of CSF proteins bound: αSN: 4:1 w/w CSF protein:fibril
Protocol: as §1, with “Samples with fibril material (20 μg), plasma (500 μg) or CSF (40 μg) proteins were prepared in 200 μL PBS buffer with 5 mM EDTA.” left out
as §2, §3, §4, §5, §6, §7

[12] = test system: T6, FAS4-AD aggregates; experiment: as above; format: binding, human; parameters: key to Identification status of CSF protein bound: FAS4-AD: *: Identified, but not quantified; —: Not identified in any of the samples; conditions: for Identification status of CSF protein bound: FAS4-AD: symbol cells; for Relative composition of CSF proteins bound: FAS4-AD: 4:1 w/w CSF protein:fibril
Protocol: as §1, with “Samples with fibril material (20 μg), plasma (500 μg) or CSF (40 μg) proteins were prepared in 200 μL PBS buffer with 5 mM EDTA.” left out
as §2, §3, §4, §5, §6, §7

T3 sequence (P01275 53-81 limits assumed): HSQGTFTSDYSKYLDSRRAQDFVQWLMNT
T4 sequence (P01009 383-418 limits assumed): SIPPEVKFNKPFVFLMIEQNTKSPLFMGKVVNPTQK

Apolipoprotein A-II: plasma/CSF protein bound to fibrils
Relative composition of plasma proteins bound: Ab1 [1]: 1.1 ± 0.2 % of total protein
Relative composition of plasma proteins bound: Ab2 [2]: 1.2 ± 0.2 % of total protein
Relative composition of plasma proteins bound: Glucagon [3]: 6.2 ± 0.6 % of total protein
Relative composition of plasma proteins bound: C-36 [4]: 1.9 ± 0.5 % of total protein
Relative composition of plasma proteins bound: αSN [5]: 0.9 ± 0.3 % of total protein
Relative composition of plasma proteins bound: FAS4-AD [6]: 1.8 ± 0.2 % of total protein
Relative composition of CSF proteins bound: Ab1 [7]: 1.0 ± 0.3 % of total protein
Identification status of CSF protein bound: Ab2 [8]: *
Relative composition of CSF proteins bound: Glucagon [9]: 0.6 ± 0.2 % of total protein
Relative composition of CSF proteins bound: C-36 [10]: 0.9 ± 0.1 % of total protein
Identification status of CSF protein bound: αSN [11]: —
Identification status of CSF protein bound: FAS4-AD [12]: —

Apolipoprotein D: plasma/CSF protein bound to fibrils
Relative composition of plasma proteins bound: Ab1 [1]: 0.1 ± 0.0 % of total protein
Relative composition of plasma proteins bound: Ab2 [2]: 0.3 ± 0.0 % of total protein
Relative composition of plasma proteins bound: Glucagon [3]: 0.3 ± 0.1 % of total protein
Relative composition of plasma proteins bound: C-36 [4]: 0.9 ± 0.1 % of total protein
Identification status of plasma protein bound: αSN [5]: *
Relative composition of plasma proteins bound: FAS4-AD [6]: 1.1 ± 0.1 % of total protein
Relative composition of CSF proteins bound: Ab1 [7]: 8.7 ± 0.4 % of total protein
Relative composition of CSF proteins bound: Ab2 [8]: 11.2 ± 0.6 % of total protein
Relative composition of CSF proteins bound: Glucagon [9]: 1.8 ± 0.3 % of total protein
Relative composition of CSF proteins bound: C-36 [10]: 9.0 ± 2.3 % of total protein
Relative composition of CSF proteins bound: αSN [11]: 3.4 ± 0.5 % of total protein
Relative composition of CSF proteins bound: FAS4-AD [12]: 5.7 ± 0.4 % of total protein

Clusterin: plasma/CSF protein bound to fibrils
Relative composition of plasma proteins bound: Ab1 [1]: 1.1 ± 0.1 % of total protein
Relative composition of plasma proteins bound: Ab2 [2]: 2.2 ± 1.2 % of total protein
Relative composition of plasma proteins bound: Glucagon [3]: 0.5 ± 0.1 % of total protein
Relative composition of plasma proteins bound: C-36 [4]: 3.5 ± 0.9 % of total protein
Relative composition of plasma proteins bound: αSN [5]: 1.6 ± 0.9 % of total protein
Relative composition of plasma proteins bound: FAS4-AD [6]: 7.9 ± 4.2 % of total protein
Relative composition of CSF proteins bound: Ab1 [7]: 9.4 ± 1.0 % of total protein
Relative composition of CSF proteins bound: Ab2 [8]: 6.9 ± 1.6 % of total protein
Relative composition of CSF proteins bound: Glucagon [9]: 2.4 ± 0.6 % of total protein
Relative composition of CSF proteins bound: C-36 [10]: 8.6 ± 1.7 % of total protein
Relative composition of CSF proteins bound: αSN [11]: 12.2 ± 2.9 % of total protein
Relative composition of CSF proteins bound: FAS4-AD [12]: 22.8 ± 11.2 % of total protein
Relative composition of CSF proteins bound: FAS4-AD ([12]; listed as clusterin): 22.8 % of total protein

Complement C1s subcomponent: plasma/CSF protein bound to fibrils
Relative composition of plasma proteins bound: Ab1 [1]: 0.3 ± 0.0 % of total protein
Relative composition of plasma proteins bound: Ab2 [2]: 0.7 ± 0.1 % of total protein
Relative composition of plasma proteins bound: Glucagon [3]: 0.2 ± 0.0 % of total protein
Relative composition of plasma proteins bound: C-36 [4]: 0.4 ± 0.1 % of total protein
Identification status of plasma protein bound: αSN [5]: *
Identification status of plasma protein bound: FAS4-AD ([6]; symbol cells): —
Relative composition of CSF proteins bound: Ab1 [7]: 0.2 ± 0.0 % of total protein
Identification status of CSF protein bound: Ab2 [8]: *
Relative composition of CSF proteins bound: Glucagon [9]: 0.2 ± 0.0 % of total protein
Relative composition of CSF proteins bound: C-36 [10]: 0.7 ± 0.2 % of total protein
Identification status of CSF protein bound: αSN [11]: —
Identification status of CSF protein bound: FAS4-AD [12]: —

Fibronectin
Relative composition of plasma proteins bound: C-36 [4]: 0.2 ± 0.0 % of total protein
Relative composition of plasma proteins bound: αSN [5]: 1.0 ± 0.0 % of total protein
Relative composition of CSF proteins bound: Ab1 [7]: 0.9 ± 0.0 % of total protein
Relative composition of CSF proteins bound: Ab2 [8]: 1.2 ± 0.3 % of total protein
Relative composition of CSF proteins bound: Glucagon [9]: 0.2 ± 0.1 % of total protein
Relative composition of CSF proteins bound: C-36 [10]: 0.7 ± 0.1 % of total protein
Identification status of CSF protein bound: αSN [11]: *
Identification status of CSF protein bound: FAS4-AD [12]: —

Source: paper PMC6405930, “Conservation of the Amyloid Interactome Across Diverse Fibrillar Structures” (Scientific Reports, 2019)
